Reference: patent US12459918B2, “Isoquinolinone derivatives serving as rock protein kinase inhibitors and use thereof” (GUANGZHOU OCUSUN OPHTHALMIC BIOTECHNOLOGY CO., LTD., priority 2019, dated 2025)

Test system: New Zealand rabbits with normal intraocular pressure
Test: Reduction of intraocular pressure by repeated eye-drop administration for 14 days, experiment operation 1
Format: in vivo
Conditions: for Change of intraocular pressure: negative control minus group
Source text: Experimental example 4. Experiment on reduction of intraocular pressure and ocular toxicity of New Zealand rabbits with normal intraocular pressure by repeated eye-drop administration for 14 days
The intraocular pressure reduction action and the potential ocular toxicity of compound 63 were explored by 14 days of repeated eye-drop administration in rabbits with normal intraocular pressure.
Male New Zealand rabbits, aged 97-127 days, weighted 2.6-3.5 kg, purchased from PizhouDongfang Breeding Co. Ltd.
The male New Zealand rabbits were randomly divided into 7 groups, with 6 rabbits per group. Animals were randomly divided according to body weight Animals in 1-7 groups were eye-dropped with solvent/control sample/test sample in both eyes, the volume of the administration was all 50 μL/eye, once per day for 14 consecutive days, and the day of the administration was recorded as Day 1. On Day 1, intraocular pressure of the animals was measured before the administration and in 1, 2, 4, 6, 8 and 10 hours after the administration, respectively; on Days 2-14, intraocular pressure of the animals was measured in 1 hour after daily administration for the group administered with K-115, and intraocular pressure of the animal was measured in 4 hours after daily administration for the other groups.

[1] = 0.5 mg/mL once per day, Day 2, 4 hours after daily administration
[2] = 0.5 mg/mL once per day, Day 3, 4 hours after daily administration
[3] = 0.5 mg/mL once per day, Day 4, 4 hours after daily administration
[4] = 0.5 mg/mL once per day, Day 5, 4 hours after daily administration
[5] = 0.5 mg/mL once per day, Day 6, 4 hours after daily administration
[6] = 0.5 mg/mL once per day, Day 7, 4 hours after daily administration
[7] = 1.0 mg/mL once per day, Day 2, 4 hours after daily administration
[8] = 1.0 mg/mL once per day, Day 3, 4 hours after daily administration
[9] = 1.0 mg/mL once per day, Day 4, 4 hours after daily administration
[10] = 1.0 mg/mL once per day, Day 5, 4 hours after daily administration
[11] = 1.0 mg/mL once per day, Day 6, 4 hours after daily administration
[12] = 1.0 mg/mL once per day, Day 7, 4 hours after daily administration
[13] = 2.0 mg/mL once per day, Day 2, 4 hours after daily administration
[14] = 2.0 mg/mL once per day, Day 3, 4 hours after daily administration
[15] = 2.0 mg/mL once per day, Day 4, 4 hours after daily administration
[16] = 2.0 mg/mL once per day, Day 5, 4 hours after daily administration
[17] = 2.0 mg/mL once per day, Day 6, 4 hours after daily administration

Cc1ccc(C(=O)OCn2cc(C)c3c(S(=O)(=O)N4CC[C@H](N)C4)cccc3c2=O)c(C)c1 [Compound 63]
Mean intraocular pressure of both eyes (0.5 mg/mL both eyes, Day 1, 1 hour after administration): 8.83 mmHg | Mean intraocular pressure of both eyes (0.5 mg/mL both eyes, Day 1, 2 hours after administration): 7.56 mmHg | Mean intraocular pressure of both eyes (0.5 mg/mL both eyes, Day 1, 4 hours after administration): 7.11 mmHg | Mean intraocular pressure of both eyes (0.5 mg/mL both eyes, Day 1, 6 hours after administration): 9.61 mmHg | Mean intraocular pressure of both eyes (0.5 mg/mL both eyes, Day 1, 8 hours after administration): 9.06 mmHg | Mean intraocular pressure of both eyes (0.5 mg/mL both eyes, Day 1, 10 hours after administration): 9.97 mmHg | Mean intraocular pressure of both eyes (0.5 mg/mL both eyes, Day 1, before administration): 10.11 mmHg | Mean intraocular pressure of both eyes [1]: 7.94 mmHg | Change of intraocular pressure [1]: 3.14 mmHg | Mean intraocular pressure of both eyes [2]: 7.31 mmHg | Change of intraocular pressure [2]: 3.08 mmHg | Mean intraocular pressure of both eyes [3]: 7.78 mmHg | Change of intraocular pressure [3]: 2.83 mmHg | Mean intraocular pressure of both eyes [4]: 7.19 mmHg | Change of intraocular pressure [4]: 3.78 mmHg | Mean intraocular pressure of both eyes [5]: 6.61 mmHg | Change of intraocular pressure [5]: 2.7 mmHg | Mean intraocular pressure of both eyes [6]: 6.00 mmHg | Change of intraocular pressure [6]: 4.06 mmHg | Change of intraocular pressure (0.5 mg/mL once per day, Day 8, 4 hours after daily administration): 4.2 mmHg | Change of intraocular pressure (0.5 mg/mL once per day, Day 9, 4 hours after daily administration): 3.25 mmHg | Change of intraocular pressure (0.5 mg/mL once per day, Day 10, 4 hours after daily administration): 3 mmHg | Change of intraocular pressure (0.5 mg/mL once per day, Day 11, 4 hours after daily administration): 3.25 mmHg | Change of intraocular pressure (0.5 mg/mL once per day, Day 12, 4 hours after daily administration): 3.28 mmHg | Change of intraocular pressure (0.5 mg/mL once per day, Day 13, 4 hours after daily administration): 3.31 mmHg | Change of intraocular pressure (0.5 mg/mL once per day, Day 14, 4 hours after daily administration): 3.72 mmHg | Change of intraocular pressure (0.5 mg/mL, Day 1, 1 hour after administration): 1.48 mmHg | Change of intraocular pressure (0.5 mg/mL, Day 1, 2 hours after administration): 3.41 mmHg | Change of intraocular pressure (0.5 mg/mL, Day 1, 4 hours after administration): 4.2 mmHg | Change of intraocular pressure (0.5 mg/mL, Day 1, 6 hours after administration): 2.33 mmHg | Change of intraocular pressure (0.5 mg/mL, Day 1, 8 hours after administration): 3.91 mmHg | Change of intraocular pressure (0.5 mg/mL, Day 1, 10 hours after administration): 4.45 mmHg | Change of intraocular pressure (0.5 mg/mL, Day 1, before administration): −0.22 mmHg | Mean intraocular pressure of both eyes (1.0 mg/mL both eyes, Day 1, 1 hour after administration): 7.08 mmHg | Mean intraocular pressure of both eyes (1.0 mg/mL both eyes, Day 1, 2 hours after administration): 6.67 mmHg | Mean intraocular pressure of both eyes (1.0 mg/mL both eyes, Day 1, 4 hours after administration): 6.44 mmHg | Mean intraocular pressure of both eyes (1.0 mg/mL both eyes, Day 1, 6 hours after administration): 8.00 mmHg | Mean intraocular pressure of both eyes (1.0 mg/mL both eyes, Day 1, 8 hours after administration): 9.22 mmHg | Mean intraocular pressure of both eyes (1.0 mg/mL both eyes, Day 1, 10 hours after administration): 10.56 mmHg | Mean intraocular pressure of both eyes (1.0 mg/mL both eyes, Day 1, before administration): 9.94 mmHg | Mean intraocular pressure of both eyes [7]: 7.64 mmHg | Change of intraocular pressure [7]: 3.44 mmHg | Mean intraocular pressure of both eyes [8]: 7.50 mmHg | Change of intraocular pressure [8]: 2.89 mmHg | Mean intraocular pressure of both eyes [9]: 7.33 mmHg | Change of intraocular pressure [9]: 3.28 mmHg | Mean intraocular pressure of both eyes [10]: 7.44 mmHg | Change of intraocular pressure [10]: 3.53 mmHg | Mean intraocular pressure of both eyes [11]: 6.92 mmHg | Change of intraocular pressure [11]: 2.39 mmHg | Mean intraocular pressure of both eyes [12]: 7.00 mmHg | Change of intraocular pressure [12]: 3.06 mmHg | Change of intraocular pressure (1.0 mg/mL once per day, Day 8, 4 hours after daily administration): 4.03 mmHg | Change of intraocular pressure (1.0 mg/mL once per day, Day 9, 4 hours after daily administration): 2.5 mmHg | Change of intraocular pressure (1.0 mg/mL once per day, Day 10, 4 hours after daily administration): 2.44 mmHg | Change of intraocular pressure (1.0 mg/mL once per day, Day 11, 4 hours after daily administration): 2.19 mmHg | Change of intraocular pressure (1.0 mg/mL once per day, Day 12, 4 hours after daily administration): 2.64 mmHg | Change of intraocular pressure (1.0 mg/mL once per day, Day 13, 4 hours after daily administration): 3.33 mmHg | Change of intraocular pressure (1.0 mg/mL once per day, Day 14, 4 hours after daily administration): 3.53 mmHg | Change of intraocular pressure (1.0 mg/mL, Day 1, 1 hour after administration): 3.23 mmHg | Change of intraocular pressure (1.0 mg/mL, Day 1, 2 hours after administration): 4.3 mmHg | Change of intraocular pressure (1.0 mg/mL, Day 1, 4 hours after administration): 4.87 mmHg | Change of intraocular pressure (1.0 mg/mL, Day 1, 6 hours after administration): 3.94 mmHg | Change of intraocular pressure (1.0 mg/mL, Day 1, 8 hours after administration): 3.75 mmHg | Change of intraocular pressure (1.0 mg/mL, Day 1, 10 hours after administration): 3.86 mmHg | Change of intraocular pressure (1.0 mg/mL, Day 1, before administration): −0.05 mmHg | Mean intraocular pressure of both eyes (2.0 mg/mL both eyes, Day 1, 1 hour after administration): 8.56 mmHg | Mean intraocular pressure of both eyes (2.0 mg/mL both eyes, Day 1, 2 hours after administration): 7.47 mmHg | Mean intraocular pressure of both eyes (2.0 mg/mL both eyes, Day 1, 4 hours after administration): 7.47 mmHg | Mean intraocular pressure of both eyes (2.0 mg/mL both eyes, Day 1, 6 hours after administration): 7.25 mmHg | Mean intraocular pressure of both eyes (2.0 mg/mL both eyes, Day 1, 8 hours after administration): 8.44 mmHg | Mean intraocular pressure of both eyes (2.0 mg/mL both eyes, Day 1, 10 hours after administration): 9.67 mmHg | Mean intraocular pressure of both eyes (2.0 mg/mL both eyes, Day 1, before administration): 9.67 mmHg | Mean intraocular pressure of both eyes [13]: 7.03 mmHg | Change of intraocular pressure [13]: 4.05 mmHg | Mean intraocular pressure of both eyes [14]: 7.25 mmHg | Change of intraocular pressure [14]: 3.14 mmHg | Mean intraocular pressure of both eyes [15]: 6.86 mmHg | Change of intraocular pressure [15]: 3.75 mmHg | Mean intraocular pressure of both eyes [16]: 6.47 mmHg | Change of intraocular pressure [16]: 4.5 mmHg | Mean intraocular pressure of both eyes [17]: 5.92 mmHg | Change of intraocular pressure [17]: 3.39 mmHg | Mean intraocular pressure of both eyes (2.0 mg/mL once per day, Day 7, 4 hours after daily administration): 5.78 mmHg
